Results as given in patent publication US20060167229A1, “Biologically active peptide conjugates” (priority 2002, published 2006).

Assay: Body weight of rats on high nutrition diet (over-feeding obesity model)
Assay type: in vivo, Sprague-Dawley (SD) rats
Experimental: Healthy rats were fed with high nutrition diet for 5 weeks, with or without simultaneous peptide treatment (intramuscular 300 μg/kg/day). Rats on an ordinary diet with saline injection were used as negative control. After 5 weeks of treatment, injection was stopped and the same diet was maintained for another three weeks. Body weight data was collected at once per week interval. Behaviour of the rats was also observed. […] It is concluded that CMS015 at suitable dosage level can reversibly control obesity development induced by over-feeding.
Sprague-Dawley (SD) rats, weighing 145±10 g, were supplied by the Center of Experimental Animal of Guangzhou University of Traditional Chinese Medicine, PR China (certificate No.: 2000A019). Peptides were custom synthesized (of L-amino acids origin) by American Peptide Company, Inc., USA, and were diluted to 10 μg/ml in normal saline. The high and normal nutrition diets were prepared in compliance with the guideline for pre-clinical research of anti-obesity drug, issued by SDA (State Drug Administration), PR China^[1].
Healthy rats were randomized into the experiment, positive control, and negative control groups. 10 rats per group, half male and half female. The experiment group of rats was fed with high nutrition diet for 5 weeks with simultaneous intramuscular injection of 300 μg/kg/day peptide, once per day. Positive control group received the same high nutrition diet but placebo saline injection, while negative control group, used to proof successful establishment of obesity model, received normal nutrition diet and placebo saline injection. After 5 weeks treatment, injection was stopped and the same diet was maintained for another 3 weeks. The rats were weighed at once per week interval. Behaviour of the rats was also observed.
The data were presented as mean±standard deviation. Paired t test or single-factor ANOVA was used for inter and intra group comparison. Statistical significance cut-off was at P≦0.05.

## Pro Ser Ile Vat Gly Arg Pro Arg His Gln Gly Val Met (PSIVGRPRHQGVM; listed as Sus scrofa) [CMS015]
300 μg/kg/day i.m. for 5 weeks, then 3 weeks same diet without injection
  difference of the treatment and control groups upon termination of peptide treatment: gradually reduced and became statistically insignificant after three weeks
Female n = 5, Pre-treatment, positive control 133.6 ± 4.6
  body weight: 129.2 ± 3.3 g
Female, Week 1, 300 μg/kg/day i.m., high nutrition diet, positive control 164.4 ± 8.7
  body weight: 157.8 ± 8.3 g
Female, Week 2, 300 μg/kg/day i.m., high nutrition diet, positive control 188.0 ± 6.4
  body weight: 176.0 ± 11.2 g
Female, Week 3, 300 μg/kg/day i.m., high nutrition diet, positive control 208.8 ± 8.2
  body weight: 196.0 ± 10.5 g
Female, Week 4, 300 μg/kg/day i.m., high nutrition diet, positive control 227.2 ± 8.2
  body weight: 212.0 ± 13.5 g
Female, Week 5, 300 μg/kg/day i.m., high nutrition diet, positive control 236.6 ± 10.9
  body weight: 221.4 ± 13.2 g
Female, Week 6 (injection stopped after week 5), positive control 249.4 ± 16.3
  body weight: 235.6 ± 16.3 g
Female, Week 7 (injection stopped after week 5), positive control 261.2 ± 13.4
  body weight: 242.2 ± 18.8 g
Female, Week 8 (injection stopped after week 5), positive control 255.6 ± 11.5
  body weight: 252.8 ± 22.5 g
Male n = 5, Pre-treatment, positive control 145.6 ± 13.6
  body weight: 145.6 ± 8.5 g
Male, Week 1, 300 μg/kg/day i.m., high nutrition diet, positive control 194.4 ± 14.5
  body weight: 183.8 ± 10.6 g
Male, Week 2, 300 μg/kg/day i.m., high nutrition diet, positive control 239.6 ± 13.4
  body weight: 220.6 ± 12.2 g
Male, Week 3, 300 μg/kg/day i.m., high nutrition diet, positive control 265.0 ± 11.8
  body weight: 239.0 ± 16.0 g
Male, Week 4, 300 μg/kg/day i.m., high nutrition diet, positive control 287.4 ± 17.7
  body weight: 258.2 ± 18.1 g
Male, Week 5, 300 μg/kg/day i.m., high nutrition diet, positive control 299.4 ± 21.2
  body weight: 268.8 ± 17.7 g
Male, Week 6 (injection stopped after week 5), positive control 333.4 ± 27.1
  body weight: 299.4 ± 21.2 g
Male, Week 7 (injection stopped after week 5), positive control 349.2 ± 28.9
  body weight: 310.4 ± 25.9 g
Male, Week 8 (injection stopped after week 5), positive control 374.4 ± 37.2
  body weight: 337.4 ± 30.6 g
